A short description of series [1]: In vitro serum stability assay (HPLC) of In-111 labeled peptide. In kind it is in vitro ADME, human. The conditions noted are these: human serum, 37EC, 4 hours. The essentials: (§1)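 The peptide was labeled with ^111InCl3 in sodium acetate/ascorbic acid buffer for 30 min at room temperature, then diluted in 5% ethanol/PBS. It was incubated at 37 °C in human serum or rat urine for set times. Filtered aliquots were analyzed by HPLC.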

Series [2] has as its target neurotensin receptors (Homo sapiens, UniProt P30989). Nature of the series: Competitive binding assay on frozen tissue sections of receptor-positive human tumors vs radioiodinated native neurotensin. The conditions noted are these: Table 3. The source says:
Frozen tissue sections from receptor-positive human tumors were used in a competitive binding assay.

Series [3] in a line: In vitro urine stability assay (HPLC) of In-111 labeled peptide. The class given is in vitro ADME. The conditions noted are these: rat urine, 37EC, 4 hours. The essentials: as §1
Series [4] addresses T1, HT 29 colon adenocarcinoma cells (Homo sapiens, UniProt P30989).
T1 construct: host or cells: HT 29 colon adenocarcinoma cells (endogenous receptors)
The conditions noted are these: Ψ(CH2NH) pseudo-peptide analogs; cited from earlier work.

For series [5], the target named is human brain neurotensin membranes. To be noted: read-out: Kd for binding on human brain neurotensin membranes; cited from earlier work.
Series [6] addresses rat brain synaptic membranes. The conditions noted are these: read-out: Kd binding to rat brain synaptic membranes; cited from earlier work.

This is an account of results in US7015306B2 (BioSynthema, Inc., priority 1999, dated 2006).

Where a SMILES comes first, the peptide text is derived from it. [ ]: non-standard residue; d: D form. The star is where a group is joined. ξ: configuration not given here. DTPA = O=C(O)CN(CCN(CC(=O)O)CC(=O)O)CCN(CC(=O)O)CC(=O)*; ξGly(4-Pip(1-amidino)) = N=C(N)N1CCC(C(N)C(=O)O)CC1; ξGly(piperidin-4-yl) = NC(C(=O)O)C1CCNCC1; mTyr = N[C@@H](Cc1cccc(O)c1)C(=O)O; Ala(cPr) = N[C@@H](CC1CC1)C(=O)O; tBuAla = CC(C)(C)C[C@H](N)C(=O)O; Tle = CC(C)(C)[C@H](N)C(=O)O

Sequence of neurotensin receptors (P30989 whole entry): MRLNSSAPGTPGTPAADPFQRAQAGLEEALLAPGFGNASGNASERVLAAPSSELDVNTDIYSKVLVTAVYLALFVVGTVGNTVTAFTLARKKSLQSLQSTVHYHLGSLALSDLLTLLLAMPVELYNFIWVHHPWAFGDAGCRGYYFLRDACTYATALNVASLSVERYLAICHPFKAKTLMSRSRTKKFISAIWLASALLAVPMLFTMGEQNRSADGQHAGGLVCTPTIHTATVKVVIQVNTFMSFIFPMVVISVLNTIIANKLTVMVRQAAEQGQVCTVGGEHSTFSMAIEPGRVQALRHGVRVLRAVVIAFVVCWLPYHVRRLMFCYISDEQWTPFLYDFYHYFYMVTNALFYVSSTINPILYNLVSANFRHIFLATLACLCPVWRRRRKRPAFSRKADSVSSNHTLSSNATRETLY
T1 sequence (P30989 whole entry): as above

Take `CC(C)(C)[C@H](NC(=O)[C@H](Cc1ccc(O)cc1)NC(=O)[C@@H]1CCCN1C(=O)[C@H](CCCNC(=N)N)NC(=O)C(NC(=O)[C@@H]1CCCN1C(=O)[C@@H](CCCCN)NC(=O)CN(CCN(CCN(CC(=O)O)CC(=O)O)CC(=O)O)CC(=O)O)C1CCN(C(=N)N)CC1)C(=O)N[C@@H](CC1CC1)C(=O)O` (stereo partly drawn) [DTPA-DLys-Pro-Gly(PipAm)-Arg-Pro-Tyr-tBuGly-Cpa-OH] ({DTPA}-[dK]P[ξGly(4-Pip(1-amidino))]RPY[Tle][Ala(cPr)]-OH): the “% of peptide at 4 hours after incubation at 37EC, Serum” value (“% of peptide at 4 hours … Serum” below) in series [1] amounted to 88.1%. The molecule also showed a Kd in series [2] of 0.29 µM. Besides, the “% of peptide at 4 hours after incubation at 37EC, Urine” value (from here on “% of peptide at 4 hours … Urine”) in series [3] is on record as 73.6%.

`CC(C)(C)C[C@H](NC(=O)[C@@H](NC(=O)[C@H](Cc1ccc(O)cc1)NC(=O)[C@@H]1CCCN1C(=O)[C@H](CCCNC(=N)N)NC(=O)C(NC(=O)[C@@H]1CCCN1C(=O)[C@@H](CCCCN)NC(=O)CN(CCN(CCN(CC(=O)O)CC(=O)O)CC(=O)O)CC(=O)O)C1CCN(C(=N)N)CC1)C(C)(C)C)C(=O)O` (stereo partly drawn) [DTPA-DLys-Pro-Gly(PipAm)-Arg-Pro-Tyr-tBuGly-tBuAla-OH] ({DTPA}-[dK]P[ξGly(4-Pip(1-amidino))]RPY[Tle][tBuAla]-OH): the “% of peptide at 4 hours … Serum” value in series [1] is listed as 89.2%. The affinity in series [2], expressed as Kd, was 0.0073 µM. Moreover, the “% of peptide at 4 hours … Urine” value in series [3] came out at 72.3%.

Take `CC(C)C[C@H](NC(=O)[C@@H](NC(=O)[C@H](Cc1cccc(O)c1)NC(=O)[C@@H]1CCCN1C(=O)[C@H](CCCNC(=N)N)NC(=O)C(NC(=O)[C@@H]1CCCN1C(=O)[C@@H](CCCCN)NC(=O)CN(CCN(CCN(CC(=O)O)CC(=O)O)CC(=O)O)CC(=O)O)C1CCN(C(=N)N)CC1)C(C)(C)C)C(=O)O` (stereo partly drawn) [DTPA-DLys-Pro-Gly(PipAm)-Arg-Pro-mTyr-tBuGly-Leu-OH] ({DTPA}-[dK]P[ξGly(4-Pip(1-amidino))]RP[mTyr][Tle]L-OH): the “% of peptide at 4 hours … Serum” value in series [1] amounted to 84.4%. The molecule further yielded a Kd in series [2] of 0.3 µM. Moreover, the “% of peptide at 4 hours … Urine” value in series [3] turned out to be 57.8%.

Consider `CC(C)C[C@H](NC(=O)[C@@H](NC(=O)[C@H](Cc1ccc(O)cc1)NC(=O)[C@@H]1CCCN1C(=O)C(NC(=O)C(NC(=O)[C@@H]1CCCN1C(=O)[C@@H](CCCCN)NC(=O)CN(CCN(CCN(CC(=O)O)CC(=O)O)CC(=O)O)CC(=O)O)C1CCN(C(=N)N)CC1)C1CCNCC1)C(C)(C)C)C(=O)O` (stereo partly drawn) [DTPA-DLys-Pro-Gly(PipAm)-PipGly-Pro-Tyr-tBuGly-Leu-OH] ({DTPA}-[dK]P[ξGly(4-Pip(1-amidino))][ξGly(piperidin-4-yl)]PY[Tle]L-OH), for which the “% of peptide at 4 hours … Serum” value in series [1] was 91.6%. Further, the affinity in series [2], expressed as Kd, was 0.14 µM. For the same molecule, in series [3], the “% of peptide at 4 hours … Urine” value is given as 79.7%.

As to “DTPA-Lys^8(Ψ-CH2NH)Arg^9-Pro-Tyr-Ile-Leu-OH ({DTPA}-KRPYIL-OH; also: reduced CH2NH bond between Lys and Arg) [DTPA-Lys^8-Ψ(CH2NH)-Arg^8-NT(8–13)]”, the Kd in series [4] was 0.013 µM.

Regarding DTPA-Lys^8-Ψ(CH2NH)-Lys^8-NT(8–13), the dissociation constant (Kd) in series [4] is 0.0074 µM.

For “monoiodo-125 derivative of natural neurotensin: monoiodo-125 derivative of natural neurotensin, radioiodo analog from the literature”, the Kd in series [5] is 0.00026 µM.

As for “monoiodo-125-[Trp^11]-neurotensin (QLYENKPRRPWIL; Neurotensin monoiodo 125I label; UniProt P30990 151-163, looked up, variant Y11W)”, the dissociation constant (Kd) in series [6] was 0.0001 µM.

As a reminder, the Kd is the equilibrium constant for the complex coming apart.
